Laboratory results reported in ChEMBL document CHEMBL5465560, “Selectivity Literature for EUbOPEN Chemogenomic Library” (2024).
Blank lines part the entries; values can stand above or below the molecule they belong to. Non-standard residues stand in square brackets, D forms with d. Residues, ends and D or L forms follow the SMILES beside them. Arg(Me) = CNC(=N)NCCC[C@H](N)C(=O)O; d3Pal = N[C@H](Cc1cccnc1)C(=O)O; azaGly = NNC(=O)O

Tests used:
[1] = molecular target: Bone morphogenetic protein receptor type-1B (Homo sapiens, UniProt O00238); experiment: Selectivity interaction (Kinase panel (Reaction Biology)) EUB0001184b BMPR1B; settings: at 1 µM
Bone morphogenetic protein receptor type-1B, sequence (O00238 whole entry): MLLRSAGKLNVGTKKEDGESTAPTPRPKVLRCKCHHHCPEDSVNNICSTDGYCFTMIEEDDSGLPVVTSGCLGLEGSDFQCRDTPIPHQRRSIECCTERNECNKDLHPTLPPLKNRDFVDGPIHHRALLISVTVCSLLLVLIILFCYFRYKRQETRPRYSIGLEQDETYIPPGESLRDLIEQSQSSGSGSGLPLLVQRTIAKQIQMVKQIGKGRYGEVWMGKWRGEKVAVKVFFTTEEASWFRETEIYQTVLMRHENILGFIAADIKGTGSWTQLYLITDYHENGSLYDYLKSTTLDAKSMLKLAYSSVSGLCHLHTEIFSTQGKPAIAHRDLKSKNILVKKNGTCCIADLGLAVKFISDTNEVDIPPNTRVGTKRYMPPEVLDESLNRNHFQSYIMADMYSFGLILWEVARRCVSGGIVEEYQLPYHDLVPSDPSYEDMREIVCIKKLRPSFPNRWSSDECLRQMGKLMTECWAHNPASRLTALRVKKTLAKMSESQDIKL

[2] = molecular target: Mitogen-activated protein kinase kinase kinase kinase 4 (Homo sapiens, UniProt O95819); experiment: Selectivity interaction (Kinase panel (Reaction Biology)) EUB0001184b MAP4K4; settings: at 1 µM
[3] = molecular target: TRAF2 and NCK-interacting protein kinase (Homo sapiens) (UniProt Q9UKE5); experiment: Selectivity interaction (Kinase panel (Reaction Biology)) EUB0001184b TNIK; settings: at 1 µM
[4] = molecular target: Mitogen-activated protein kinase kinase kinase kinase 5 (Homo sapiens) (UniProt Q9Y4K4); experiment: Selectivity interaction (33PanQinase Assay (Reaction Biology)) EUB0001107a MAP4K5
[5] = molecular target: Serine/threonine-protein kinase PAK 3 (Homo sapiens) (UniProt O75914); experiment: Selectivity interaction (33PanQinase Assay (Reaction Biology)) EUB0001107a PAK3
[6] = molecular target: Serine/threonine-protein kinase PAK 2 (Homo sapiens) (UniProt Q13177); experiment: Selectivity interaction (33PanQinase Assay (Reaction Biology)) EUB0001107a PAK2
[7] = molecular target: Calcium/calmodulin-dependent protein kinase type II subunit gamma (Homo sapiens) (UniProt Q13555); experiment: Selectivity interaction (KinaseProfile service (Milipore)) EUB0001485aCl CAMK2G; settings: at 1 µM
[8] = molecular target: MAP kinase-interacting serine/threonine-protein kinase 2 (Homo sapiens, UniProt Q9HBH9); settings: at 1 µM
MAP kinase-interacting serine/threonine-protein kinase 2, sequence (Q9HBH9 whole entry, looked up): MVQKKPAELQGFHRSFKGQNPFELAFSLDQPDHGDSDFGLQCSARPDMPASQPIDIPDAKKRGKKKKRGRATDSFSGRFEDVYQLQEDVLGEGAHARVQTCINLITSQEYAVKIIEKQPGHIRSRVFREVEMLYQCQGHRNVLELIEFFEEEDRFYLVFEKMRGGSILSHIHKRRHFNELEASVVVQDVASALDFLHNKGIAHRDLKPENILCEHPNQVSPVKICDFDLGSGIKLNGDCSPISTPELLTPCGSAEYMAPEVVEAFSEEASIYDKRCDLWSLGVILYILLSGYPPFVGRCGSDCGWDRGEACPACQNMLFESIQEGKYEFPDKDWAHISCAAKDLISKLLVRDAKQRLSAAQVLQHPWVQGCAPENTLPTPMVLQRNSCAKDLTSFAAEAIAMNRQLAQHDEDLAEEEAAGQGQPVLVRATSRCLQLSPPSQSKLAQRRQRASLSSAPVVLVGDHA

[9] = molecular target: Calcium/calmodulin-dependent protein kinase type II subunit delta (Homo sapiens) (UniProt Q13557); settings: at 1 µM
Calcium/calmodulin-dependent protein kinase type II subunit delta (Homo sapiens), sequence (Q13557 whole entry): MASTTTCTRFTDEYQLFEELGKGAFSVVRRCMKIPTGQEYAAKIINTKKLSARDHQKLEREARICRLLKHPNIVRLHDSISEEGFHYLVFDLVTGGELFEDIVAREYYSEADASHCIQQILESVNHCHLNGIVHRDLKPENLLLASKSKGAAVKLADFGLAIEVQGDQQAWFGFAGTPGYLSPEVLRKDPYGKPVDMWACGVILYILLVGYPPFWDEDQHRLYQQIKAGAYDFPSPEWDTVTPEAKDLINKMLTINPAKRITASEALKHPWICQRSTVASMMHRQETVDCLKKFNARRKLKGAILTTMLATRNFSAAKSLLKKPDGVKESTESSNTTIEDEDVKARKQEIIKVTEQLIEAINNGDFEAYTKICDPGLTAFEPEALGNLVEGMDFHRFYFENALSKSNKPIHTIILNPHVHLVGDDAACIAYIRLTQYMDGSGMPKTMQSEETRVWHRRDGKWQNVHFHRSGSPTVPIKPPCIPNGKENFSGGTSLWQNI

[10] = molecular target: Alpha-2B adrenergic receptor (Homo sapiens) (UniProt P18089); experiment: Selectivity interaction (GPCR panel (PDSP screen)) EUB0001072a ADRA2B; settings: at 10 µM
[11] = molecular target: Muscarinic acetylcholine receptor M5 (Homo sapiens) (UniProt P08912); experiment: Selectivity interaction (GPCR panel (PDSP screen)) EUB0001072a CHRM5; settings: at 10 µM
Muscarinic acetylcholine receptor M5 (Homo sapiens), sequence (P08912 whole entry): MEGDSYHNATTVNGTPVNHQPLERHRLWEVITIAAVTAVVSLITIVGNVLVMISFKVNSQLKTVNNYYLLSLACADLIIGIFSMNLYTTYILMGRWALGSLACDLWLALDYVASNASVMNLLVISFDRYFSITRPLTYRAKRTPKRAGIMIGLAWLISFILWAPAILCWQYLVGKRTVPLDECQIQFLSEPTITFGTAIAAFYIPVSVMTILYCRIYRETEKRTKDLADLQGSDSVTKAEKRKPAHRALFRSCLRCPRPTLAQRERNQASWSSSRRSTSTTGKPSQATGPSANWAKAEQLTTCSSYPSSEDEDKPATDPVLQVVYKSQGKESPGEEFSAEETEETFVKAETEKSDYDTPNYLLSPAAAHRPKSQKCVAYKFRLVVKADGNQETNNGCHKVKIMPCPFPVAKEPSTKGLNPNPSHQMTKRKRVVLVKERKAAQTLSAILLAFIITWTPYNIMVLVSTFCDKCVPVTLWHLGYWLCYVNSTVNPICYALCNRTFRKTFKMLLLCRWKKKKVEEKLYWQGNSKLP

[12] = molecular target: T1, Gamma-aminobutyric acid receptor subunit alpha-1 (Homo sapiens) (UniProt P14867); experiment: (§1) Selectivity interaction (GPCR panel (PDSP screen)) EUB0001072a GABRA1; settings: at 10 µM
T1 sequence (whole entry): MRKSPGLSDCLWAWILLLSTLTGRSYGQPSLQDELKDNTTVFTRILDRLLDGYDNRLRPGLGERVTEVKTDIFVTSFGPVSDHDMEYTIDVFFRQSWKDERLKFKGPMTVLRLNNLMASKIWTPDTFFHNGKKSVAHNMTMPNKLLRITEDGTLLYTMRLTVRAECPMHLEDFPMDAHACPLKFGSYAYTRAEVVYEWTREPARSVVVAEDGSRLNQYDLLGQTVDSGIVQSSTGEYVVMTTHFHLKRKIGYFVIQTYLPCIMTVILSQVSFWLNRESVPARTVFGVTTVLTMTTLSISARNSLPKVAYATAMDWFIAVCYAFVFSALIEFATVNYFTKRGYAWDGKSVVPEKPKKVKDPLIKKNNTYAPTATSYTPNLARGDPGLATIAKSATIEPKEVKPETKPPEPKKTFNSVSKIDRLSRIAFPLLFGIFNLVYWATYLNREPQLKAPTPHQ

[13] = molecular target: 5-hydroxytryptamine receptor 2B (Homo sapiens, UniProt P41595); experiment: Selectivity interaction (GPCR panel (PDSP screen)) EUB0001072a HTR2B; settings: at 10 µM
[14] = molecular target: 5-hydroxytryptamine receptor 5A (Homo sapiens) (UniProt P47898); experiment: Selectivity interaction (GPCR panel (PDSP screen)) EUB0001072a HTR5A; settings: at 10 µM
5-hydroxytryptamine receptor 5A (Homo sapiens), sequence (P47898 whole entry): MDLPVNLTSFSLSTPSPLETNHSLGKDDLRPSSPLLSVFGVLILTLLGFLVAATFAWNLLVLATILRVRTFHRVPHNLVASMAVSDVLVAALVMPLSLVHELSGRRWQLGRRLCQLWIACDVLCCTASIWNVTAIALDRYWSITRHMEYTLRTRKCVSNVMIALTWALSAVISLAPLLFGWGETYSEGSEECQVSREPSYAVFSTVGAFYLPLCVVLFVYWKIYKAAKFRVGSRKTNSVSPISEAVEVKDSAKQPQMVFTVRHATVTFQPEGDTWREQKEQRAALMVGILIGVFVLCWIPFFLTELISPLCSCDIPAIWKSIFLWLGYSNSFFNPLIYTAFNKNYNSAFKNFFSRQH

[15] = molecular target: Muscarinic acetylcholine receptor M3 (Homo sapiens, UniProt P20309); experiment: Selectivity interaction (GPCR panel (PDSP screen)) EUB0001072a CHRM3; settings: at 10 µM
Muscarinic acetylcholine receptor M3, sequence (P20309 whole entry, looked up): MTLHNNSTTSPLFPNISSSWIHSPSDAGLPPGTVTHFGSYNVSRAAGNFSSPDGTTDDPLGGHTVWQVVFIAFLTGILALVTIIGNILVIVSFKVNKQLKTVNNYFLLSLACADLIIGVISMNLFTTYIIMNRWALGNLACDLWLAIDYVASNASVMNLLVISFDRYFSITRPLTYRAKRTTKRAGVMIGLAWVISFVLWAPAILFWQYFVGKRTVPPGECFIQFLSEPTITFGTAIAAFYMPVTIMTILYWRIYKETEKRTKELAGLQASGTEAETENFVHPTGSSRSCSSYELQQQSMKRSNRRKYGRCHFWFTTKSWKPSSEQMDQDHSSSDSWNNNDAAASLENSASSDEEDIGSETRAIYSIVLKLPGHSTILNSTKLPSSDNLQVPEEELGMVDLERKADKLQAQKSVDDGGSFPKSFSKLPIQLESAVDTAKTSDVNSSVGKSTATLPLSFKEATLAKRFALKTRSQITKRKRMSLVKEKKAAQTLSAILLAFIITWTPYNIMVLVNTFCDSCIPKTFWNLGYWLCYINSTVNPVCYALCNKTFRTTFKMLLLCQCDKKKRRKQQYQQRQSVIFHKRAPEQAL

[16] = molecular target: Histamine H3 receptor (Homo sapiens, UniProt Q9Y5N1); experiment: Selectivity interaction (GPCR panel (PDSP screen)) EUB0001072a HRH3; settings: at 10 µM
Histamine H3 receptor, sequence (Q9Y5N1 whole entry): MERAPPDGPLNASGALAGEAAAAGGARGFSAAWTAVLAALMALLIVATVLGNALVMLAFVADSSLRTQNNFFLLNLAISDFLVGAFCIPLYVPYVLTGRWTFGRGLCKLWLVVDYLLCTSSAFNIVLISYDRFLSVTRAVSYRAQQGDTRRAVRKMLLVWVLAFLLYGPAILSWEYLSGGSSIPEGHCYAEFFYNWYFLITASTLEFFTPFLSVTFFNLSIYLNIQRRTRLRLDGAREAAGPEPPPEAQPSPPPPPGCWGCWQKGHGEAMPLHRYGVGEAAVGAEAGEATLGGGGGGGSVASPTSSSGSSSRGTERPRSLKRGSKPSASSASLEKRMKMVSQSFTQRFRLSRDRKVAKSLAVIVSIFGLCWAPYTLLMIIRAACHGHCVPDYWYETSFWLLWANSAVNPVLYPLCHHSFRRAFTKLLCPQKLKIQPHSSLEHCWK

[17] = molecular target: Sodium-dependent dopamine transporter (Homo sapiens, UniProt Q01959); experiment: Selectivity interaction (GPCR panel (PDSP screen)) EUB0001072a SLC6A3; settings: at 10 µM
[18] = molecular target: T2, Muscarinic acetylcholine receptor M2 (Homo sapiens) (UniProt P08172); experiment: Selectivity interaction (GPCR panel (PDSP screen)) EUB0001072a CHRM2; settings: at 10 µM
T2 sequence (whole entry): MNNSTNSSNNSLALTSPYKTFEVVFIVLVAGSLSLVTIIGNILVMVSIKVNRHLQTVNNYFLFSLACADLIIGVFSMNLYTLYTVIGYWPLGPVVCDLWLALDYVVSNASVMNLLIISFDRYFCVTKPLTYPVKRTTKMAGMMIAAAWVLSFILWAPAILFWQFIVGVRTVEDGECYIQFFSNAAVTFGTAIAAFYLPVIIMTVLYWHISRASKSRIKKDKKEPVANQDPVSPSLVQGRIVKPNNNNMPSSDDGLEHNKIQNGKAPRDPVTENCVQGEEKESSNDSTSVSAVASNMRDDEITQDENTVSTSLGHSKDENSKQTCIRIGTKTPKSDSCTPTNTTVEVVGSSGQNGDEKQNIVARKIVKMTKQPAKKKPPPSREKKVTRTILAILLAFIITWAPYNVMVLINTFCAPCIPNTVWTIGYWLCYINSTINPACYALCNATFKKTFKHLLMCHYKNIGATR

[19] = molecular target: 5-hydroxytryptamine receptor 2A (Homo sapiens, UniProt P28223); experiment: Selectivity interaction (GPCR panel (PDSP screen)) EUB0001072a HTR2A; settings: at 10 µM
[20] = molecular target: T3, Muscarinic acetylcholine receptor M1 (Homo sapiens) (UniProt P11229); experiment: Selectivity interaction (GPCR panel (PDSP screen)) EUB0001072a CHRM1; settings: at 10 µM
T3 sequence (whole entry): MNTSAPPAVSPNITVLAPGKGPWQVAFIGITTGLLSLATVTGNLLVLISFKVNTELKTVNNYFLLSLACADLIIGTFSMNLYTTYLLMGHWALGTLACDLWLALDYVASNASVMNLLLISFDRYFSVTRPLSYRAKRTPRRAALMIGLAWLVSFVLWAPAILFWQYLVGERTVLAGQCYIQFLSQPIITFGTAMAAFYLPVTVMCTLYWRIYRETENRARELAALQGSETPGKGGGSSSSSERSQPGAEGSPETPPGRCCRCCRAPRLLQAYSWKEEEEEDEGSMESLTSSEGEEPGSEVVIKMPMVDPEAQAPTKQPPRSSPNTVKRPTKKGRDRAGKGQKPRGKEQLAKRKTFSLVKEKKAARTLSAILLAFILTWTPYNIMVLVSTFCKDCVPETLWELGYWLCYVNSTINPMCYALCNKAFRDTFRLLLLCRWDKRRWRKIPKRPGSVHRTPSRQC

[21] = molecular target: 5-hydroxytryptamine receptor 1D (Homo sapiens) (UniProt P28221); experiment: Selectivity interaction (GPCR panel (PDSP screen)) EUB0001072a HTR1D; settings: at 10 µM
5-hydroxytryptamine receptor 1D (Homo sapiens), sequence (P28221 whole entry): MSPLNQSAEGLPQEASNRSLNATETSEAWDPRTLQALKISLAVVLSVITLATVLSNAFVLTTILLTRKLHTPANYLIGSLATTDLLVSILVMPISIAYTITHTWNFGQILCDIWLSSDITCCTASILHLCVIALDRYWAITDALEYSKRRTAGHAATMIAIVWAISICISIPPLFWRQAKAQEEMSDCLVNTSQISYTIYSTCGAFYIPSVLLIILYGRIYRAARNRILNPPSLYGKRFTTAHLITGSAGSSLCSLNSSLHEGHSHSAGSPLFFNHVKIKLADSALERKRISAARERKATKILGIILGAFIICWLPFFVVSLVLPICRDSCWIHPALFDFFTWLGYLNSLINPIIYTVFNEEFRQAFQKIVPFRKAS

[22] = molecular target: T4, 5-hydroxytryptamine receptor 1A (Homo sapiens) (UniProt P08908); experiment: Selectivity interaction (GPCR panel (PDSP screen)) EUB0001072a HTR1A; settings: at 10 µM
T4 sequence (whole entry): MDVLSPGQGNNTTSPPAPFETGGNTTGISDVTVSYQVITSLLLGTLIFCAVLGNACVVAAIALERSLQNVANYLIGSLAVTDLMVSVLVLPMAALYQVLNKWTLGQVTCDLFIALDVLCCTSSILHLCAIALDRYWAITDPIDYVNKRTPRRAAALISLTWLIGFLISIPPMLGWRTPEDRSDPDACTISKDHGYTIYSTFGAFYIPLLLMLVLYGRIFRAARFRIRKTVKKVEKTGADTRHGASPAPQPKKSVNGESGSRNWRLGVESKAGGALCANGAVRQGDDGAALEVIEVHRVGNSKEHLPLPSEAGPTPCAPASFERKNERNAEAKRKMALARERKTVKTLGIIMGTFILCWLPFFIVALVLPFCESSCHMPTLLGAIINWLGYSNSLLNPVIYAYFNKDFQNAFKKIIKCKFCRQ

[23] = molecular target: T1, Gamma-aminobutyric acid receptor subunit alpha-1 (Homo sapiens); experiment: as §1; settings: at 10 µM; remark: listed apart in the source
[24] = molecular target: Muscarinic acetylcholine receptor M4 (Homo sapiens) (UniProt P08173); experiment: Selectivity interaction (GPCR panel (PDSP screen)) EUB0001072a CHRM4; settings: at 10 µM
[25] = molecular target: D(1B) dopamine receptor (Homo sapiens) (UniProt P21918); experiment: Selectivity interaction (GPCR panel (PDSP screen)) EUB0001072a DRD5; settings: at 10 µM
D(1B) dopamine receptor (Homo sapiens), sequence (P21918 whole entry): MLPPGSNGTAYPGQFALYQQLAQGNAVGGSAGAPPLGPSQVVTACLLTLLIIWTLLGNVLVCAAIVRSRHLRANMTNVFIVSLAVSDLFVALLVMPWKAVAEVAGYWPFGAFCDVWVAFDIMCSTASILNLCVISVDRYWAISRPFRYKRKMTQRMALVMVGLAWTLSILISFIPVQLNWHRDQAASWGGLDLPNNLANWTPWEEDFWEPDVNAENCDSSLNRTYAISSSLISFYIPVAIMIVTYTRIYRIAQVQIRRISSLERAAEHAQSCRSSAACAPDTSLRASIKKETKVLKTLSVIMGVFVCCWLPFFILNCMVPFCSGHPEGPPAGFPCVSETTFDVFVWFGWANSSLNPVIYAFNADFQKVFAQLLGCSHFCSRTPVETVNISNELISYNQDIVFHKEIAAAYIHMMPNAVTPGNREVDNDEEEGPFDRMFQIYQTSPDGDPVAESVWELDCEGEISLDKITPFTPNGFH

[26] = molecular target: 5-hydroxytryptamine receptor 1E (Homo sapiens) (UniProt P28566); experiment: Selectivity interaction (GPCR panel (PDSP screen)) EUB0001072a HTR1E; settings: at 10 µM
5-hydroxytryptamine receptor 1E (Homo sapiens), sequence (P28566 whole entry): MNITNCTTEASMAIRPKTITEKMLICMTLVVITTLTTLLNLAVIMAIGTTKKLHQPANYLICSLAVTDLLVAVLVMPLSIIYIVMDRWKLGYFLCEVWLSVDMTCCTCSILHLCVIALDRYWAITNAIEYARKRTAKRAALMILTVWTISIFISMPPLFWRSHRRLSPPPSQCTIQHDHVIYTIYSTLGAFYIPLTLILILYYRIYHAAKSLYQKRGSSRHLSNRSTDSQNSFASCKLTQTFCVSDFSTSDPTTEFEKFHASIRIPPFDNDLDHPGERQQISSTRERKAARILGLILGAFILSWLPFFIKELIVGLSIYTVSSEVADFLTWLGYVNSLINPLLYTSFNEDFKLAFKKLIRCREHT

[27] = molecular target: 4-aminobutyrate aminotransferase, mitochondrial (Homo sapiens, UniProt P80404); experiment: Selectivity interaction (GPCR panel (PDSP screen)) EUB0001072a ABAT; settings: at 10 µM
[28] = molecular target: 5-hydroxytryptamine receptor 1B (Homo sapiens) (UniProt P28222); experiment: Selectivity interaction (GPCR panel (PDSP screen)) EUB0001072a HTR1B; settings: at 10 µM

- % of inhibition [1]: 27%
- % of inhibition [2]: 30%
- % of inhibition [3]: 4.92%
SMILES: COc1cc(-c2cncc(-c3ccc(N4CCN(C(C)C)CC4)cc3)c2C)cc(F)c1C(N)=O

- % of residual activity [4]: 8%
- % of residual activity [5]: 9%
- % of residual activity [6]: 10%
SMILES: CNc1ncc2cc(-c3ccc(-c4ncccc4F)cc3Cl)c(=O)n(C[C@H]3OC[C@H](N)CO3)c2n1

- % of control [7]: 59%
- % of control [8]: 55%
- % of control [9]: 60%
SMILES: COc1cc(-c2cn[nH]c2)ccc1C(=O)Nc1ccc2c(c1)CCNCC2

SMILES: CNC(=N)NCCC[C@H](NC(=O)[C@H](CC(C)C)NC(=O)NNC(=O)[C@H](Cc1ccccc1)NC(=O)[C@H](CO)NC(=O)[C@H](CC(N)=O)NC(=O)[C@@H](Cc1cccnc1)NC(=O)[C@H](N)Cc1ccc(O)cc1)C(=O)NCC(N)=O (H-[dY][d3Pal]NSF[azaGly]L[Arg(Me)]G-NH2)
- % of inhibition [10]: 14.5%
- % of inhibition [11]: 12.3%
- % of inhibition [12]: 15.5%
- % of inhibition [13]: 11.3%
- % of inhibition [14]: 16.3%
- % of inhibition [15]: 24.7%
- % of inhibition [16]: 12.5%
- % of inhibition [17]: 10.4%
- % of inhibition [18]: 40.7%
- % of inhibition [19]: 16.9%
- % of inhibition [20]: 15.1%
- % of inhibition [21]: 12.4%
- % of inhibition [22]: 30.9%
- % of inhibition [23]: 12.3%
- % of inhibition [24]: 18.5%
- % of inhibition [25]: 29.2%
- % of inhibition [26]: 27.9%
- % of inhibition [27]: 15.6%
- % of inhibition [28]: 31%
